The values that follow are results of earlier work, collected in US20230172901A1, “COMPOSITIONS AND METHODS FOR THE PROPHYLAXIS AND TREATMENT OF FIBROTIC AND INFLAMMATORY CONDITIONS” (GRETALS AUSTRALIA PTY LTD, priority 2020, published 2023).

This data set relates to IPF patients. Particulars: prior art, cited from earlier work.

For the molecule `COC(=O)c1ccc2c(c1)NC(=O)/C2=C(\Nc1ccc(N(C)C(=O)CN2CCN(C)CC2)cc1)c1ccccc1` [Nintendanib], for the setting “IPF patients”, the “quality of life / respiratory parameters” value was “can improve quality of life” and the survival result is reported as “do not improve survival”.
As for `Cc1ccc(=O)n(-c2ccccc2)c1` [Perfenidone], the side effects result was “provokes a range of side effects in the skin, gastrointestinal tract, liver, and nervous system”. Besides, the progression-free survival result (IPF patients) is “improve progression-free survival”.
